# Laboratory results published in ChEMBL document CHEMBL1201862, “PubChem BioAssay data set” (2004).
#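 Five concentrations, 48 hours, 96-well plates. At the GI50, growth is halved.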 Activity calls are given as the source filed them. No stated cut-off is given here; in the data, active = GI50 up to about 1.1 µM and inactive = higher.
# Columns and labels:
# Test in all cases: DTP human tumour cell line panel, 48 h
# SW-620 = test system: SW-620
# MCF7 = test system: MCF7
# LXFL 529 = test system: LXFL 529
# KM-20L2 = test system: KM-20L2
# HCT-116 = test system: HCT-116
# XF498 = test system: XF498
# OVCAR-8 = test system: OVCAR-8
# SNB-75 = test system: SNB-75
# MDA-MB-231 = test system: MDA-MB-231
# OVCAR-5 = test system: OVCAR-5
# HOP-18 = test system: HOP-18
# HCT-15 = test system: HCT-15
# SNB-19 = test system: SNB-19
# NCI/ADR-RES = test system: NCI/ADR-RES
# SK-OV-3 = test system: SK-OV-3
# SF-295 = test system: SF-295
# UACC-62 = test system: UACC-62
# HOP-62 = test system: HOP-62
# MDA-N = test system: MDA-N
# NCI-H226 = test system: NCI-H226
# SN12C = test system: SN12C
# HCC 2998 = test system: HCC 2998
# SK-MEL-2 = test system: SK-MEL-2
# SF-268 = test system: SF-268
# A498 = test system: A498
# RXF 393 = test system: RXF 393
# RPMI-8226 = test system: RPMI-8226
# ACHN = test system: ACHN
# NCI-H522 = test system: NCI-H522
# CAKI-1 = test system: CAKI-1
# OVCAR-4 = test system: OVCAR-4
# SK-MEL-28 = test system: SK-MEL-28
# IGROV-1 = test system: IGROV-1
# MOLT-4 = test system: MOLT-4
# HT-29 = test system: HT-29
# U-251 = test system: U-251
# M14 = test system: M14
# 786-0 = test system: 786-0
# EKVX = test system: EKVX
# PC-3 = test system: PC-3
# Malme-3M = test system: Malme-3M
# UO-31 = test system: UO-31
# COLO 205 = test system: COLO 205
# SF-539 = test system: SF-539
# HL-60 = test system: HL-60
# NCI-H460 = test system: NCI-H460
# SK-MEL-5 = test system: SK-MEL-5
# DU-145 = test system: DU-145
# MDA-MB-435 = test system: MDA-MB-435
# HOP-92 = test system: HOP-92
# OVCAR-3 = test system: OVCAR-3
# K562 = test system: K562
# LOX IMVI = test system: LOX IMVI
# Hs-578T = test system: Hs-578T
# SNB-78 = test system: SNB-78
# A549 = test system: A549
# CCRF-CEM = test system: CCRF-CEM
# UACC-257 = test system: UACC-257
# DMS-114 = test system: DMS-114
# BT-549 = test system: BT-549
# TK-10 = test system: TK-10
# DMS-273 = test system: DMS-273
# NCI-H23 = test system: NCI-H23
# RXF 631 = test system: RXF 631
# DLD-1 = test system: DLD-1
# KM12 = test system: KM12
# SR = test system: SR
# M19-MEL = test system: M19-MEL
compound,measurement,setting,value
Brc1ccccc2cc(-c3ccccc3)nc1-2,GI50,SW-620,2.07 µM (inactive)
same,GI50,MCF7,8.79 µM (inactive)
same,GI50,LXFL 529,1.73 µM (inactive)
same,GI50,KM-20L2,1.71 µM (inactive)
same,GI50,HCT-116,1.85 µM (inactive)
same,GI50,XF498,1.98 µM (inactive)
same,GI50,OVCAR-8,2.27 µM (inactive)
same,GI50,SNB-75,11.6 µM (inactive)
same,GI50,MDA-MB-231,2.6 µM (inactive)
same,GI50,OVCAR-5,7.43 µM (inactive)
same,GI50,HOP-18,3.78 µM (inactive)
same,GI50,HCT-15,2.24 µM
same,GI50,SNB-19,13.6 µM (inactive)
same,GI50,NCI/ADR-RES,3.58 µM (inactive)
same,GI50,SK-OV-3,8.69 µM (inactive)
same,GI50,SF-295,15.6 µM (inactive)
same,GI50,UACC-62,2.53 µM (inactive)
same,GI50,HOP-62,9.93 µM (inactive)
same,GI50,MDA-N,14.7 µM (inactive)
same,GI50,NCI-H226,5.05 µM (inactive)
same,GI50,SN12C,1.87 µM (inactive)
same,GI50,HCC 2998,1.93 µM (inactive)
same,GI50,SK-MEL-2,4.61 µM (inactive)
same,GI50,SF-268,4.85 µM (inactive)
same,GI50,A498,14 µM (inactive)
same,GI50,RXF 393,2.09 µM (inactive)
same,GI50,RPMI-8226,2.44 µM (inactive)
same,GI50,ACHN,3.37 µM (inactive)
same,GI50,NCI-H522,2.86 µM (inactive)
same,GI50,CAKI-1,5.05 µM (inactive)
same,GI50,OVCAR-4,2.9 µM (inactive)
same,GI50,SK-MEL-28,3.94 µM (inactive)
same,GI50,IGROV-1,9.12 µM (inactive)
same,GI50,MOLT-4,1.53 µM (inactive)
same,GI50,HT-29,4.5 µM (inactive)
same,GI50,U-251,7.87 µM (inactive)
same,GI50,M14,3 µM (inactive)
same,GI50,786-0,1.92 µM (inactive)
same,GI50,EKVX,11.5 µM (inactive)
same,GI50,PC-3,13.5 µM (inactive)
same,GI50,Malme-3M,3.01 µM (inactive)
same,GI50,UO-31,5.37 µM (inactive)
same,GI50,COLO 205,2.14 µM (inactive)
same,GI50,SF-539,4.8 µM (inactive)
same,GI50,HL-60,1.27 µM (inactive)
same,GI50,NCI-H460,11.9 µM (inactive)
same,GI50,SK-MEL-5,6.55 µM (inactive)
same,GI50,DU-145,11.9 µM (inactive)
same,GI50,MDA-MB-435,9.95 µM (inactive)
same,GI50,HOP-92,3.32 µM (inactive)
same,GI50,OVCAR-3,2.16 µM (inactive)
same,GI50,K562,2.7 µM (inactive)
same,GI50,LOX IMVI,2.23 µM (inactive)
same,GI50,Hs-578T,6.87 µM (inactive)
same,GI50,SNB-78,2.85 µM (inactive)
same,GI50,A549,14.7 µM (inactive)
same,GI50,CCRF-CEM,2.47 µM (inactive)
same,GI50,UACC-257,5.06 µM (inactive)
same,GI50,DMS-114,2.16 µM (inactive)
same,GI50,BT-549,19.3 µM (inactive)
same,GI50,TK-10,7.57 µM (inactive)
same,GI50,DMS-273,4.35 µM (inactive)
same,GI50,NCI-H23,3.26 µM (inactive)
same,GI50,RXF 631,11.9 µM (inactive)
same,GI50,DLD-1,1.94 µM (inactive)
same,GI50,KM12,5.97 µM (inactive)
COc1ccc(/C=N/Nc2nc(-c3cc4oc(=O)n(C)c4cc3Cl)cs2)cc1OC,GI50,SW-620,44.1 µM (inactive)
same,GI50,LXFL 529,15.3 µM (inactive)
same,GI50,KM-20L2,15.7 µM (inactive)
same,GI50,HCT-116,9.04 µM (inactive)
same,GI50,XF498,10.7 µM (inactive)
same,GI50,OVCAR-8,36.6 µM (inactive)
same,GI50,SNB-75,28.7 µM (inactive)
same,GI50,OVCAR-5,> 100 µM (inactive)
same,GI50,HOP-18,> 100 µM (inactive)
same,GI50,HCT-15,6.65 µM
same,GI50,SNB-19,49.2 µM (inactive)
same,GI50,SK-OV-3,> 100 µM (inactive)
same,GI50,SF-295,9.23 µM (inactive)
same,GI50,UACC-62,16.8 µM (inactive)
same,GI50,HOP-62,36.2 µM (inactive)
same,GI50,SN12C,17.9 µM (inactive)
same,GI50,HCC 2998,35.6 µM (inactive)
same,GI50,SK-MEL-2,53.1 µM (inactive)
same,GI50,SF-268,35.3 µM (inactive)
same,GI50,RXF 393,15.4 µM (inactive)
same,GI50,RPMI-8226,8.26 µM (inactive)
same,GI50,ACHN,7.66 µM (inactive)
same,GI50,CAKI-1,79.3 µM (inactive)
same,GI50,OVCAR-4,11.2 µM (inactive)
same,GI50,SK-MEL-28,> 100 µM (inactive)
same,GI50,IGROV-1,14 µM (inactive)
same,GI50,MOLT-4,9.75 µM (inactive)
same,GI50,HT-29,9.33 µM (inactive)
same,GI50,U-251,15.7 µM (inactive)
same,GI50,M14,78.5 µM (inactive)
same,GI50,786-0,33.4 µM (inactive)
same,GI50,EKVX,9.51 µM (inactive)
same,GI50,SR,77.4 µM (inactive)
same,GI50,Malme-3M,10.5 µM (inactive)
same,GI50,UO-31,13.6 µM (inactive)
same,GI50,COLO 205,81.8 µM (inactive)
same,GI50,SF-539,48.3 µM (inactive)
same,GI50,M19-MEL,7.8 µM (inactive)
same,GI50,HL-60,15.7 µM (inactive)
same,GI50,NCI-H460,20.7 µM (inactive)
same,GI50,SK-MEL-5,2.36 µM (inactive)
same,GI50,HOP-92,25.4 µM (inactive)
same,GI50,OVCAR-3,9.95 µM (inactive)
same,GI50,K562,4.89 µM (inactive)
same,GI50,LOX IMVI,28.6 µM (inactive)
same,GI50,SNB-78,37.2 µM (inactive)
same,GI50,A549,4.35 µM (inactive)
same,GI50,CCRF-CEM,91 µM (inactive)
same,GI50,UACC-257,4.27 µM (inactive)
same,GI50,DMS-114,5.87 µM (inactive)
same,GI50,TK-10,36.7 µM (inactive)
same,GI50,DMS-273,11.9 µM (inactive)
same,GI50,NCI-H23,6.15 µM (inactive)
same,GI50,RXF 631,21 µM (inactive)
same,GI50,DLD-1,10.7 µM (inactive)
same,GI50,KM12,18.8 µM (inactive)
